{"source": "paper PMC3343456", "about": "(Angewandte Chemie (International ed. in English), 2011)", "biological_target": "GilOI (Streptomyces griseoflavus, UniProt Q7X2G6)", "experiment": "cofactor content of the purified enzyme", "type": "binding", "data": [{"smiles": "Cc1cc2nc3c(=O)[nH]c(=O)nc-3n(C[C@H](O)[C@H](O)[C@H](O)COP(=O)(O)OP(=O)(O)OC[C@H]3O[C@@H](n4cnc5c(N)ncnc54)[C@H](O)[C@@H]3O)c2cc1C", "note": "[flavin adenine dinucleotide]", "values": [{"measurement": "cofactor content of the purified enzyme (Figure S3)", "value": "GilOI and GilOIV are oxygenases that contain flavin adenine dinucleotide (FAD, Figure S3"}]}]}
